According to ChEMBL document CHEMBL5120902, “Phytohabitols A-C, δ-Lactone-Terminated Polyketides from an Actinomycete of the Genus Phytohabitans” (J Nat Prod, 2022):
Converted amounts (≈) assume the structure as drawn.

Key:
Kocuria rhizophila = assay: Antibacterial activity against Kocuria rhizophila assessed as inhibition of bacterial growth incubated for 48 hrs by liquid microculture method; format: functional
Trypanosoma cruzi = assay: Antitrypanosomal activity against Trypanosoma cruzi epimastigotes assessed as parasite growth inhibition measured after 24 hrs by CellTiter-glo luminescence assay; format: functional, organism-based
[1] = Cytotoxicity against rat 3Y1 cells assessed as cell growth inhibition incubated for 84 hrs by MTT assay; format: toxicity, cell-based
Bacillus subtilis = assay: Antibacterial activity against Bacillus subtilis assessed as inhibition of bacterial growth incubated for 48 hrs by liquid microculture method; format: functional
[2] = Selectivity ratio of GI50 for cytotoxicity against rat 3Y1 cells to IC50 for antitrypanosomal activity against Trypanosoma cruzi epimastigotes; format: toxicity, cell-based
[3] = Cytotoxicity against human EC17 cells at 0.18 to 18 uM incubated for 12 hrs; format: toxicity, cell-based; conditions: ec17, 12 h, dose 0.18-18 µM
[4] = Antimigratory activity against human EC17 cells assessed as inhibition of cell migration incubated for 12 hrs by microscopic analysis; format: functional, cell-based; conditions: EC17, 12 h

C/C=C(\C)[C@@H](O)[C@H](C)[C@H](O)C/C=C(C)/C=C(\C)C/C(C)=C/C/C=C(\C)[C@@H](O)[C@@H](C)[C@H]1CC[C@H](CCC)C(=O)O1
MIC (Kocuria rhizophila): 100 µg/mL (≈ 184 µM)
IC50 (Trypanosoma cruzi): 6.4 µM
GI50 at 84 h [1]: 31 µM
MIC (Bacillus subtilis): 100 µg/mL (≈ 184 µM)
selectivity ratio [2]: 4.9
Activity [3]: Non-Toxic
IC50 [4]: 11 µM

C/C=C(\C)[C@@H](O)[C@H](C)[C@H](O)C/C=C(C)/C=C(\C)C/C(C)=C/C/C=C(\C)[C@@H](O)[C@@H](C)[C@H]1CC[C@H](CCCC)C(=O)O1
MIC (Kocuria rhizophila): 100 µg/mL (≈ 179 µM)
IC50 (Trypanosoma cruzi): 12 µM
GI50 at 84 h [1]: 32 µM
MIC (Bacillus subtilis): 100 µg/mL (≈ 179 µM)
selectivity ratio [2]: 2.8
Activity [3]: Non-Toxic
IC50 [4]: 15 µM

C/C=C(\C)[C@@H](O)[C@H](C)[C@H](O)C/C=C(C)/C=C(\C)C/C(C)=C/C/C=C(\C)[C@@H](O)[C@@H](C)[C@H]1CC[C@H](CC)C(=O)O1
MIC (Kocuria rhizophila): 100 µg/mL (≈ 188 µM)
IC50 (Trypanosoma cruzi): 18 µM
GI50 at 84 h [1]: 3.8 µM
MIC (Bacillus subtilis): 100 µg/mL (≈ 188 µM)
selectivity ratio [2]: 0.22
Activity [3]: Non-Toxic
IC50 [4]: 8.3 µM

O=C(Cn1ccnc1[N+](=O)[O-])NCc1ccccc1 [BENZNIDAZOLE]
IC50 (Trypanosoma cruzi): 16 µM
